# From patent US20160115540A1, “PRODRUGS AND DRUGS” (Biogen MA Inc., priority 2013, published 2016)
# Counter-ions that a name gives are not always drawn.
# System: kidney
# Assay: Transcriptional profiling on Affymetrix GeneChips, single dose, naïve mice: kidney
# Format: in vivo, C57BL/6 mice
# Details: 100 DMF-vs-Veh, 2 h
# Description: Treated mice were sacrificed at 2, 7, or 12 hours. Tissues (liver, spleen, kidney, jejunum, cortex, hippocampus, striatum and whole blood) were collected and analyzed by transcriptional profiling on mouse Affymetrix GeneChips.
# Tissues (liver, spleen, kidney, jejunum, cortex, hippocampus, striatum and whole blood) were collected and analyzed by transcriptional profiling on mouse Affymetrix GeneChips.
# Animals were exposed to CO2 and whole blood collected via cardiac puncture. Two 100 μl aliquots of whole blood were collected in 1.5 mL microcentrifuge tubes and snap frozen in liquid nitrogen. Peripheral (liver, spleen, kidney and jejunum) and CNS brain (cerebellum, hippocampus, striatum and cortex) tissues were harvested and snap frozen in liquid nitrogen, with special care taken to collect tissues of similar size and from the same location. All samples were stored at −80° C. until RNA extraction was conducted.
# For RNA preparation, frozen tissues were placed in 2 mL RNAse-free 96-well blocks with 1.5 mL QIAzol Lysis Reagent (QIAgen) and a 3.2 mm stainless steel bead (BioSpec Products, Bartlesville, Okla.). Tissues were disrupted for four cycles of 45 seconds in a Mini-Beadbeater (Biospec Products). RNA was extracted in chloroform and the aqueous phase was mixed with an equal volume of 70% ethanol. Extracted RNA was applied to RNeasy 96 plates and purified by the spin method according to the manufacturer's protocol (RNeasy 96 Universal Tissue Protocol, QIAgen, Hilden Germany).
# Automated sample amplifications and biotin labelings were carried out using the NuGEN Ovation RNA Amplification system V2 (Cat #3100), Ovation WB reagent (Cat #1300) and Encore Biotin module (Cat #4200) (NuGEN Technologies, Inc, San Carlos, Calif.) according to manufacturer's recommendations using an Arrayplex automated liquid handler (Beckman Coulter, Indianapolis, Ind.). Two micrograms of biotin labeled sscDNA probe were hybridized to Affymetrix GeneChip Affymetrix HT_MG-430_PM plate arrays with modified conditions as described in Allaire et al. Washing and staining of the hybridized arrays were completed as described in the GeneChip Expression analysis technical manual for HT plate arrays using the Genechip® Array Station (Affymetrix, Santa Clara, Calif.) with modifications as described in Allaire et al. The processed GeneChip® plate arrays were scanned using GeneTitan scanner (Affymetrix, Santa Clara, Calif.).
# Affymetrix scans were subject to quality control (QC) measures. These tests included a visual inspection of the distribution of raw signal intensities and an assessment of RNA degradation, relative log expression (RLE), and normalized unsealed standard error (NUSE). All sample scans that passed these QC metrics were included in the analysis.
# All CEL files were subjected to GC-content-based Robust Multi-array Average (GCRMA) normalization (version 2.20.0) (Irizarry R A, et al. Nucleic Acids Res 2003; 31:e15; Li C, et al. Genome Biol 2001; 2:[…]0032). Expression levels were log (base 2) transformed.
# All calculations and analyses were carried out using R (version 2.11.1) and Bioconductor computational tools (Gentleman R. Springer Science+Business Media 2005).
smiles,measurement,value
"COC(=O)/C=C/C(=O)OC [DMF, dimethyl fumarate]",FC Kbtbd11 1431254_PM_at,−1.77
same,FC Kbtbd11 1435465_PM_at,−1.50
same,FC Kdm6b 1440346_PM_at,1.52
same,FC LOC100502834 1441010_PM_at,−1.53
same,FC LOC100503447 1443908_PM_at,−1.72
same,FC Lipg 1421262_PM_at,2.42
same,FC Lipg 1450188_PM_s_at,1.94
same,FC Lonrf3 1429863_PM_at,4.13
same,FC Lonrf3 1436200_PM_at,3.86
same,FC Maff 1418936_PM_at,2.83
same,FC Mdm2 1423605_PM_a_at,1.51
same,FC Mdm2 1427718_PM_a_at,1.66
same,FC Med13 1438725_PM_at,2.02
same,FC Mfsd2a 1428223_PM_at,−2.59
same,FC Mir17hg 1428694_PM_at,2.82
same,FC Mpp6 1441546_PM_at,1.62
same,FC Mt1 1451612_PM_at,2.79
same,FC Mtch2 1438842_PM_at,1.67
same,FC Mthfd2 1419253_PM_at,2.06
same,FC Mthfd2 1419254_PM_at,1.54
same,FC Mylip 1424988_PM_at,−1.70
same,FC Naa16 1429056_PM_at,1.71
same,FC Napsa 1430744_PM_at,−4.53
same,FC Nat2 1449981_PM_a_at,−2.01
same,FC Nlrp6 1427369_PM_at,−1.52
same,FC Ntn4 1450512_PM_at,−1.67
same,FC Nufip2 1435632_PM_at,1.57
same,FC Osgin1 (1424022_PM_at),4.63
same,FC Ovol1 1419051_PM_at,−1.60
same,FC P4ha1 1452094_PM_at,1.56
same,FC Paip1 1441955_PM_s_at,1.61
same,FC Pank1 1429813_PM_at,−1.59
same,FC Pgd 1423706_PM_a_at,1.61
same,FC Pgd 1438627_PM_x_at,1.50
same,FC Pgd (1436771_PM_x_at),1.52
same,FC Pgd (1437380_PM_x_at),1.53
same,FC Phf23 1428997_PM_at,1.72
same,FC Phip 1438535_PM_at,1.50
same,FC Plekhf2 1423862_PM_at,1.54
same,FC Plk3 1434496_PM_at,3.14
same,FC Polr3e 1429456_PM_a_at,−1.69
same,FC Ppm1k 1441988_PM_at,−1.62
same,FC Ppp1r15b 1436366_PM_at,1.72
same,FC Pppde1 1425185_PM_at,1.94
same,FC Pppde1 1451621_PM_at,1.65
same,FC Pprc1 1426381_PM_at,1.74
same,FC Prkar2b 1438664_PM_at,2.43
same,FC Prr5 1451463_PM_at,1.65
same,FC Psme4 1443116_PM_at,1.56
same,FC Rg9mtd2 1435035_PM_at,1.82
same,FC Rhebl1 1447818_PM_x_at,−1.57
same,FC Rhebl1 1451516_PM_at,−2.01
same,FC Riok2 1423481_PM_at,1.62
same,FC Rwdd2a 1428963_PM_at,2.54
same,FC Siah2 1448170_PM_at,1.71
same,FC Slc1a4 1423549_PM_at,1.52
same,FC Slc7a13 1431740_PM_at,−2.60
same,FC Slc20a1 1448568_PM_a_at,2.07
same,FC Slc36a2 1436521_PM_at,4.63
same,FC Slc38a2 1426722_PM_at,2.05
same,FC Slc40a1 1448566_PM_at,1.71
same,FC Snhg1 1433674_PM_a_at,1.62
same,FC Snhg1 1433675_PM_at,1.69
same,FC Snx16 1438803_PM_s_at,1.60
same,FC Spry4 1440867_PM_at,1.71
same,FC Spry4 1445669_PM_at,1.54
same,FC Sqstm1 1450957_PM_a_at,1.69
same,FC Srsf7 1436871_PM_at,1.57
same,FC Srxn1 (1419942_PM_at),1.62
same,FC Srxn1 (1426875_PM_s_at),1.59
same,FC Susd3 1428975_PM_at,−1.51
same,FC Syn3 1435311_PM_s_at,−1.73
same,FC Taf15 1438130_PM_at,1.59
same,FC Them4 1431140_PM_at,1.80
same,FC Tmco6 1451692_PM_at,−1.57
same,FC Tmem26 1435409_PM_at,−1.85
same,FC Tmem26 (1434583_PM_at),−1.66
